Laboratory results: patent US20230365568A1, “PLK1 POLO BOX DOMAIN INHIBITORS AND METHOD OF TREATING CANCER” (The United States of America,as represented by the …, priority 2020, published 2023)
Read-outs that look alike come from different tables or passages of the source.

Tests used:
[1] = biological target: PBD of Plk1 (Homo sapiens (Human), UniProt P53350); details: Gunasekaran et al., 2020; cited from earlier work
[2] = tested on: CYP3A; experiment: Mouse liver microsome assay with CYP-specific inhibitors; format: in vitro ADME; details: mouse liver microsomes
Description: In Vitro MLM Assay. Incubations of the mouse liver microsome (MLM) samples were performed in duplicate. Reactions (200 μL final volume) were conducted in 50 mM potassium phosphate buffer, 3 mM MgCl2 (pH 7.4), 1 mg/mL MLM protein, and 2.5 μM test compound with or without 50 μM inhibitor. The mixture was preincubated at 37° C. for 3 min and initiated with 4 mM NADPH. At the serial time of the incubation, 20 μL of the mixture was added to ice-cold 80 μL of 90% acetonitrile including 4 μM of 4 followed by a 25 min incubation on ice and centrifugation at 14,000×g for 10 min. 40 μL of supernatant was diluted with 20 μL of water, and a 5 μL aliquot was injected into the UPLC-QTOF system.
To evaluate metabolic stability information, S-methyl 51 and 5-thio-1-methyl-4-nitroimidazolyl 73 prodrugs were administered orally in male C57BL/6 mice via gavage 50 mg/kg or 20 mg/kg, respectively. […] The AUCs of 14 were 523,200 mg-h/L and 317,600 mg-h/L in 50 mg/kg and 20 mg/kg doses, respectively. Compound 14 was further metabolized by glucuronidation. […] The presence of the 9-F group impeded the hydroxylation, compared to the PK studies in Alverez et al. (J. Med. Chem. 63, 14087-14117 (2020)).

[3] = Aqueous solubility; details: aqueous solubility
[4] = Microsomal metabolic stability, rat liver microsomes (RLM); details: rat liver microsomes
[5] = rat, microsomes
[6] = in vitro; details: PAMPA

PBD of Plk1, sequence (P53350 326-603): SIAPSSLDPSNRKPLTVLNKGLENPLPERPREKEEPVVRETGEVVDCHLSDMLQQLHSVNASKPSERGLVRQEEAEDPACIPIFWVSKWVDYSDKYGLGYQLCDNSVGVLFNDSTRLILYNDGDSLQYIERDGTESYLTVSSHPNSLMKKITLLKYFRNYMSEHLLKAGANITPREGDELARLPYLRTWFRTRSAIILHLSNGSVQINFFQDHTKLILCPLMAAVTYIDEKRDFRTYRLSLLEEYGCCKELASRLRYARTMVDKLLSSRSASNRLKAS

## CNc1ccc(C(=O)NCCn2cc(C=C3C(=O)NC(=O)NC3=O)c(-c3ccccc3)n2)cc1 [KBJK557]
[1]
  cross-reactivity among Plk1-3 PBDs: considerable cross-reactivities among Plk1-3 PBDs

## CC(=O)NCCCn1c(=O)c2cc(F)ccc2n2c(=S)[nH]nc12 [compound 73]
[2]
  sensitivity of conversion to 14 to ketoconazole (CYP3A inhibitor): refractory to ketoconazole treatment
other
  PAMPA: 18.0 ×10⁻⁶ cm/s
[3]
  Solub.: >50 µg/mL
[4]
  t1/2 (min, RLM): >30 min

## 7-fluoro-4-(2-(piperidin-1-yl)ethyl)-1-thioxo-2,4-dihydro-[1,2,4]triazolo[4,3-a]quinazolin-5(1H)-one [Example 49]
[5]
  t1/2 (min, RLM): >30 min

## Cc1noc(C)c1C=CC(=O)NCCCn1c(=O)c2cc(F)ccc2n2c(=S)[nH]nc12 [compound 121, 3-(3,5-dimethylisoxazol-4-yl)-N-(3-(7-fluoro-5-oxo-1-thioxo-1,2-dihydro-[1,2,4]triazolo[4,3-a]quinazolin-4(5H)-yl)propyl)propenamide]
[6]
  Papp: 27.6 ×10⁻⁶ cm/s
